From patent US20120277312A1, “Ethylgallate and Related Compounds as a Treatment for Sepsis and Septic Shock” (priority 2009, published 2012) come the findings set out here.

Entries after “also recorded” stand apart in the source; their conditions may differ.

The subject of test [1] is lysozyme's vasodilatory effect in canine carotid artery preparation. The test is described as follows: Lysozyme-induced vasodilation in canine carotid artery preparation (in-vitro). Particulars: canine carotid artery preparation, in-vitro. The procedure: Lysozyme produces vasodilation by intrinsically generating hydrogen peroxide (H2O2) that leads to activation of signaling pathways resulting in these hemodynamic effects (7).
Ethyl gallate is added to food as an antioxidant. It is the ethyl ester of gallic acid. Though found naturally in a variety of plant sources including walnuts (8), ethyl gallate is produced from gallic acid and ethanol (9). […] It is of note that if a substance could not inhibit lysozyme's effect in-vitro, then it would be worthless to pursue an in-vivo study.

Test [2] concerns POX-induced vasodilation in carotid and superior mesenteric arterial preparations. The test is described as follows: Peroxacetic acid (POX)-induced vasodilation in carotid and superior mesenteric arterial preparations. Also on record: species or system canine. The text has this: POX is a hydroperoxide (slightly different from the molecule of hydrogen peroxide) that also may be released in septic shock by macrophages and inflammatory cells. […] However, the pathway by which POX caused vasodilation is much different than that caused by lysozyme. […] To some extent, therefore, the improvement in hemodynamics previously observed when ethyl-gallate was infused in our in-vivo study could have also been related to ethyl-gallate's inhibition of the POX pathway in addition to ethyl-gallate's inhibitory-effect on lysozyme mediated pathways.
The only similarity found between lysozyme and POX is that POX's mechanism of action is also independent of the endothelium and nitric oxide formation, since we could not prevent POX's vasodilatory effect by removal of the endothelium or by nitric oxide inhibition. In contrast to lysozyme, POX seems to cause vasodilation is by activation of an enzyme in the vascular tissue called prostaglandin H synthase (PHS). PHS has an important mechanism of action, in that after activation by hydroperoxides (such as POX), it can in turn activate the cyclooxygenase pathway leading to vasodilation.

Another test deals with T1, lysozyme (Homo sapiens, UniProt P61626).
T1 sequence (P61626 19-148): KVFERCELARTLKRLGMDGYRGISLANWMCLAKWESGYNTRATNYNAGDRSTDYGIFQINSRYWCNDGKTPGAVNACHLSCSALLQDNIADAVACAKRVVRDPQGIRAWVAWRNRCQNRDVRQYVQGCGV
The test is described as follows: Lysozyme-induced hydrogen peroxide generation measured by Ultra Amplex Red assay. Particulars: 6.5×10^−6 mol/L lysozyme. The format is biochemical.

Test [3] can be described thus: In-vivo study of mannitol (not further described). As for the experimental part: Ethyl gallate is added to food as an antioxidant. It is the ethyl ester of gallic acid. Though found naturally in a variety of plant sources including walnuts (8), ethyl gallate is produced from gallic acid and ethanol (9). […] Thus, ethyl gallate, methyl gallate, and ethyl 3,4 dihydroxybenzoate has unique properties for the treatment of septic shock. It is of note that if a substance could not inhibit lysozyme's effect in-vitro, then it would be worthless to pursue an in-vivo study.

The nature of test [4]: Hydrogen peroxide scavenging (Amplex Red assay, electrochemical techniques, glucosidase/glucose assay). The class given is biochemical. The note with it: multiple methodologies. The text has this:
(§1) This generation appears to involve the mechanism described by Wentworth et al in which proteins can utilize water as a catalyst to generate H2O2 (12) Once formed by lysozyme, H2O2 then reacts with intrinsic catalase to form a species of catalase termed Compound I (2) Compound I then acts to generate cyclic-guanosine monophosphate which in turn causes vasodilation. […] These as well as other mechanisms may account for the efficacy of ethyl-gallate treatment in septic shock.

The target of another test is T2, catalase (Homo sapiens, UniProt P04040).
T2 sequence (P04040 2-527 limits assumed): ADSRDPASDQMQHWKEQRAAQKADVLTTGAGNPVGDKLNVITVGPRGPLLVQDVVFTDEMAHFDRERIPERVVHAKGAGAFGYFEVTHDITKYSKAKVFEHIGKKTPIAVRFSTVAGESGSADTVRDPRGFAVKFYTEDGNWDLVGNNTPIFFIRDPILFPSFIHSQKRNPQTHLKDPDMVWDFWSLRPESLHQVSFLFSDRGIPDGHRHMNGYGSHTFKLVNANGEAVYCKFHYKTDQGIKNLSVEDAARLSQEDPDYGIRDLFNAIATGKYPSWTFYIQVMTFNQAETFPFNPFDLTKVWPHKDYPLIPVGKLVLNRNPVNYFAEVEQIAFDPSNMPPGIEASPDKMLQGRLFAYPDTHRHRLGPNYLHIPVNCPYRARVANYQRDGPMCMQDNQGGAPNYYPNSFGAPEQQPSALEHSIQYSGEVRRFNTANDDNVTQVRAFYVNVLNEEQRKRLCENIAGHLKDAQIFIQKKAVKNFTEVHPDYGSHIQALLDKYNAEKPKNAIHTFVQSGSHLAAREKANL
The test is described as follows: Conversion of catalase to compound I (wave-scan spectroscopy). The class given is biochemical.
Text: as §1

On to `O=C(O[C@@H]1Cc2c(O)cc(O)cc2O[C@@H]1c1cc(O)c(O)c(O)c1)c1cc(O)c(O)c(O)c1` [epigalloccatechin gallate], for which the “block of lysozyme's vasodilatory effect” value in test [1] is “failed to block”.

As for `CCCOC(=O)c1cc(O)c(O)c(O)c1` [propyl gallate], in test [1], the “block of lysozyme's vasodilatory effect” value is on record as “failed to block”.

For `COc1cc(/C=C/C(=O)CC(=O)/C=C/c2ccc(O)c(OC)c2)ccc1O` [curcumin], in test [1], the “block of lysozyme's vasodilatory effect” value was “failed to block”.

For the molecule `[Ba]` [barium], the “inhibition of vasodilation caused by POX” value in test [2] is “could be prevented”.

As for `O=c1oc2c(O)c(O)cc3c(=O)oc4c(O)c(O)cc1c4c23` [ellagic acid], the “block of lysozyme's vasodilatory effect” value in test [1] is given as “failed to block”.

Regarding `O=C(O[C@@H]1Cc2c(O)cc(O)cc2O[C@@H]1c1ccc(O)c(O)c1)c1cc(O)c(O)c(O)c1` [epicathechin gallate], the “block of lysozyme's vasodilatory effect” value in test [1] is given as “failed to block”.

As for catechin gallate, the “block of lysozyme's vasodilatory effect” value in test [1] is recorded as “failed to block”.

Consider `CCOC(=O)c1ccc(O)c(O)c1` [ethyl 3,4-dihydroxybenzoate], for which the “block of lysozyme's vasodilatory effect” value in test [1] is on record as “blocked”.

As for `COc1ccc2c(c1)c(CC(=O)O)c(C)n2C(=O)c1ccc(Cl)cc1` [indomethacin], the “inhibition of vasodilation caused by POX” value in test [2] is “could be inhibited”.

As to `COc1ccccc1O` [guaicol], the “block of lysozyme's vasodilatory effect” value in test [1] was “failed to block”.

Take `COC(=O)c1cc(O)c(O)c(O)c1` [methyl gallate]: the “block of lysozyme's vasodilatory effect” value in test [1] is on record as “blocked”.

For the molecule `O=C([O-])c1ccccc1.[Na+]` [sodium benzoate], in test [1], the “block of lysozyme's vasodilatory effect” value is “failed to block”.

`O=c1cc(-c2ccc(O)c(O)c2)oc2cc(O)cc(O)c12` [luteolin]: the “block of lysozyme's vasodilatory effect” value in test [1] is given as “failed to block”.

Consider `[K+]` [potassium], for which the “inhibition of vasodilation caused by POX” value in test [2] is “could be prevented”.

In the case of `OC[C@@H](O)[C@@H](O)[C@H](O)[C@H](O)CO` [mannitol], in test [1], the “block of lysozyme's vasodilatory effect” value is listed as “worked”. Further, at lysozyme, the “inhibition of lysozyme-induced hydrogen peroxide generation” value is on record as “do not inhibit”. The effect in-vivo entry in test [3] is listed as “did not have a positive effect”.

For `CC(/C=C/C=C(\C)C(=O)O[C@@H]1O[C@H](CO[C@@H]2O[C@H](CO)[C@@H](O)[C@H](O)[C@H]2O)[C@@H](O)[C@H](O)[C@H]1O)=C\C=C\C=C(C)\C=C\C=C(/C)C(=O)O[C@@H]1O[C@H](CO[C@@H]2O[C@H](CO)[C@@H](O)[C@H](O)[C@H]2O)[C@@H](O)[C@H](O)[C@H]1O` [crocin], the “block of lysozyme's vasodilatory effect” value in test [1] was “failed to block”.

As to `C=C(C)[C@H]1CC=C(C)CC1` [limonene], in test [1], the “block of lysozyme's vasodilatory effect” value is given as “failed to block”.

As for `O=C(O)c1cc(O)c(O)c(O)c1` [gallic acid, reference compound], the “block of lysozyme's vasodilatory effect” value in test [1] is reported as “could not block; also recorded: failed to block”. Also, the “scavenging of hydrogen peroxide” value in test [4] is on record as “can scavenge”. On catalase, the “inhibition of degradation of catalase to compound I” value is “can also prevent”.

Turning to `O=C1O[C@H]([C@@H](O)CO)C([O-])=C1O.[Na+]` [sodium ascorbate], the “block of lysozyme's vasodilatory effect” value in test [1] was “failed to block”.

Consider `N[C@@H](CCC(=O)N[C@@H](CS)C(=O)NCC(=O)O)C(=O)O` [reduced glutathione], for which the “block of lysozyme's vasodilatory effect” value in test [1] is “failed to block”.

Take `O.O.O=c1c(O)c(-c2ccc(O)c(O)c2)oc2cc(O)cc(O)c12` [quercetin dihydrate]: in test [1], the “block of lysozyme's vasodilatory effect” value was “failed to block”.

Regarding `CC(=O)N[C@@H](CS)C(=O)O` [N-acetylcyteine], the “block of lysozyme's vasodilatory effect” value in test [1] is “failed to block”.

As for `C[S+](C)[O-]` [DMSO], the “inhibition of lysozyme-induced hydrogen peroxide generation” value at lysozyme was “do not inhibit”.
